Measurements from patent publication US11149028B2, “Methods for treating melanoma using small molecules” (NOVA SOUTHEASTERN UNIVERSITY, priority 2016, dated 2021).
“Also recorded” adds a separate entry of the source. Where two headings read alike, the source gives them in different places.

Columns and labels:
WM266-4 cells [1] = assay: Annexin V flow cytometry assay; format: cell-based, human; details: 100 μM
Source text: After 4, 24 and 48 hrs of compound exposure the adherent and floating cells were combined and stained using the TACS Annexin V-FITC Apoptosis detection kit (Trevigen Inc, Gaithersburg, Md., USA) using manufacturer's protocol. Viable, necrotic, early and late apoptotic cells were counted using Accuri flow cytometer as per the manufacturer instructions.

CHO-K1 cells = assay: CellTiter-Glo viability assay, CHO-K1 healthy control cells; format: cell-based; details: individual compounds
Method: (§1) Mixture libraries were solubilized in 3% DMSO/H2O and added to polypropylene 384 well plates (Greiner cat #781280). 1,250 CHO-K1, A549, or M14 cells were plated in 384-well plates in 5 μL of serum-free media (F12 for CHO-K1 and A549, DMEM for M14). Test compounds and gefitinib (pharmacological assay control) were prepared as 10-point, 1:3 serial dilutions starting at 300 then added to the cells (5 μL per well) using the Biomek NX^P. Plates were incubated for 72 h at 37° C., 5% CO2 and 95% RH. After incubation, 5 μL of CellTiter-Glo® (Promega cat #: G7570) were added to each well, and incubated for 15 min at room temperature. Luminescence was recorded using a Biotek Synergy H4 multimode microplate reader. Viability was expressed as a percentage relative to wells containing media only (0%) and wells containing cells treated with 1% DMSO only (100%). Three parameters were calculated on a per-plate basis: (a) the signal-to-background ratio (SB); (b) the coefficient for variation [CV; CV=(standard deviation/mean)×100)] for all compound test wells; and (c) the Z′-factor (18). The IC50 value of the pharmacological control (gefitinib, LC Laboratories #G-4408) was also calculated to ascertain the assay robustness. Time course viability assay was performed as described for library screening with luminescence measurements performed at 4, 24, 48, and 72 h.

[2] = test system: A549 non-small cell lung cancer cell line; assay: CellTiter-Glo viability assay, A549 cells; format: cell-based; details: individual compounds
Method: as §1

M14 cells = assay: CellTiter-Glo viability assay, M14 melanoma cells (library screening, individual compounds, time course); format: cell-based, human; details: for IC50: Homo sapiens, M14
Method: as §1

lamin A/C = assay: DARTS (drug affinity responsive target stability); format: binding, human
Source text: (FIG. 26A, DARTS workflow). Proteins that bind the lead present as bands of differential intensity on SDS-PAGE and are identified using proteomic techniques. […] Bands from non-treated control and sample treated with 2155-14 were excised, trypsinized, and run on LC/MS/MS. […] In addition to lamin A/C, lamin B2, transketolase (TKT), and cytoskeleton-associated protein 4 (CKAP4) were also identified as possible targets (Table 7 shown in FIG. 27). The exclusive unique peptide counts were too close to make the identification of one over the other with confidence.
WM266-4 melanoma cell lysates were prepared using a routine protocol with commercially available M-PER buffer supplemented with protease and phosphatase inhibitors. Lysates were split into control and compound test portions, and DMSO and 2155-14 were added to the respective lysate portions and incubated at RT for 1 h to allow for 2155-14 binding to its target(s). Pronase dilutions (1:100. 1:300, 1:1000. 1:3000 and 1:10000, Roche #10165921001) were prepared from 10 mg/mL stock. Lysates were split into 5 aliquots, and pronase dilutions were added to lysate aliquots and incubated at RT for 30 min. […]
Each sample was analyzed by liquid-chromatography-tandem MS (LC-MS/MS) using an EASY-nLC 1000 system coupled to a Q Exactive mass spectrometer (Thermo Fisher Scientific). […]

HDAC1 = HDAC1 (Homo sapiens, UniProt Q13547); assay: HDAC inhibition testing; format: biochemical; details: up to 100 μM
Sequence of HDAC1 (Q13547 whole entry, species assumed): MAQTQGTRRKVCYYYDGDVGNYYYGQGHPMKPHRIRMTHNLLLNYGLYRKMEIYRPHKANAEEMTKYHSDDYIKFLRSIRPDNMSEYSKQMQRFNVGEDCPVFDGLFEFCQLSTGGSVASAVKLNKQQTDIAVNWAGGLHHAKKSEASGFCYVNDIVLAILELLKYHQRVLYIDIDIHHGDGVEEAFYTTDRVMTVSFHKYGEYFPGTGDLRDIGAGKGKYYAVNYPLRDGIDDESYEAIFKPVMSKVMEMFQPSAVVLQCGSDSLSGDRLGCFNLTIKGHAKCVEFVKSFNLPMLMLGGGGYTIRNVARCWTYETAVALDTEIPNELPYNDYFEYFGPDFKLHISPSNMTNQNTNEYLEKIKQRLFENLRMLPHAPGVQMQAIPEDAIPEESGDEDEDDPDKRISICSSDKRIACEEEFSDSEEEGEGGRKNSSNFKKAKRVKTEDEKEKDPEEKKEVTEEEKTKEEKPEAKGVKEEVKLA

WM266-4 cells [3] = assay: Cell staining for autophagy (autophagosome dye); format: cell-based, human; details: for autophagy staining: 100 μM; for autophagy staining / morphology of unstained cells: 4 and 24 h; for morphology of unstained cells: bright field
Method: WM266-4 cells were seeded at 10,000 cells/well in 0.1 mL of E-MEM medium supplemented with 10% FBS and 1% penicillin/streptomycin in 96 well plates (Greiner Bio-One CellStar cat #655180) and allowed to adhere overnight. After overnight incubation 100 μM 2155-14, 2155-18, 50 nM hnRNPH2 siRNA or 25 μM 2476-67.2 were added and incubated for various length of time. Cells were rinsed with warm PBS and stained with CYTO-ID® 1.0 Autophagy reagent (Enzo ENZ-51031-0050) and counterstained with DAPI. Cells were imaged using Cytation 5 imager (Biotek Inc, Winooski, Vt.) using GFP and DAPI filter sets. For % autophagic cells calculations cell counts were conducted using DAPI-stained nuclei and Object Sum Area value was obtained from at least 1,000 cells/well using DAPI channels. To obtain number of cells undergoing autophagy the cell count was conducted using GFP channel. Both GFP and DAPI cell counts were conducted using optimized algorithm in automatic mode. 8 replicate wells were used. % autophagic cells was calculated using Equation 1:% autophagic cells=100%*(number of cells, GFP channenumber of cells, DAPI channel)
To calculate staining intensity, the Object Sum Area value from GFP channel was obtained and divided by number of cells using DAPI channel. Both GFP and DAPI cell counts were conducted using optimized algorithm in automatic mode. 3 replicate wells were used.

| SMILES | early apoptotic and necrotic cells, of total population (WM266-4 cells [1]) | cells undergoing late apoptosis (WM266-4 cells [1]; 24 h) [%] | cells undergoing late apoptosis (WM266-4 cells [1]; 48 h) [%] | cells undergoing late apoptosis in presence of Z-VAD-FMK (WM266-4 cells [1]; 48 h, 10 μM pan-caspase inhibitor) [%] | IC50 (CHO-K1 cells; Cricetulus griseus, CHO-K1) [µM] | IC50 ([2]; Homo sapiens, A549) [µM] | inhibition of M14 cell viability at highest concentration (M14 cells; 100 μM) | IC50 (M14 cells; individual compounds, read-out: IC50 for M14 cells) [µM] | DARTS-LC-MS/MS identification of protected band (lamin A/C; 100 μM, 1:1,000 pronase) | protection of lamin A/C from pronase (lamin A/C; WM266-4 lysates, western blot) | HDAC1 inhibition (HDAC1) | autophagy staining (WM266-4 cells [3]) | morphology of unstained cells (WM266-4 cells [3]) | cells undergoing autophagy (WM266-4 cells [3]; quantitation of representative image, FIG. 18D) [%] | selectivity over CHO-K1 healthy control cells (CHO-K1 cells) | activity towards A549 cells [2] | IC50 (M14 cells; read-out: IC50 for M14) [µM] | activity towards M14 cells (M14 cells; individual compounds) |
| --- | --- | --- | --- | --- | --- | --- | --- | --- | --- | --- | --- | --- | --- | --- | --- | --- | --- | --- |
| O=C1NC[C@H](Cc2ccccc2)N(C[C@@H]2CCCN2C[C@@H](CC2CCCCC2)N2C[C@H](Cc3ccc(O)cc3)N(CCc3ccccc3)C(=O)C2=O)C1=O [Compound 2155-14, (S)-1((R)-1((S)-2-(((S)-6-benzyl-2,3-dioxopiperazin-1-yl)methyl)pyrrolidin-1-yl)-3-cyclohexylpropan-2-yl)-5-(4-hydroxybenzyl)-4-phenethylpiperazine-2,3-dione] | less than 5% | 18 | 32 | 29 | > 100 | > 100 | not able to fully inhibit | 3.6 ± 0.3 | Lamin A/C was the protein with the highest score | protects these proteins from pronase proteolysis | lack of HDAC inhibition | stained positive for autophagy as early as 4 h after compound addition; also recorded: At 24 h the intensity of autophagy staining increased; also recorded: stain positive for autophagy at 4 h | exhibited traits of apoptosis; also recorded: extensive cell death | 57 | – | – | – | – |
| O=C1NC[C@H](Cc2ccccc2)N(C[C@@H]2CCCN2C[C@H](Cc2ccccc2)N2C[C@H](Cc3ccc(O)cc3)N(CCC34CC5CC(CC(C5)C3)C4)C(=O)C2=O)C1=O [Compound 2155-18, (S)-4-(2-(adamantan-1yl)ethyl)-1-((S)-1-((S)-2-(((S)-6-benzyl-2,3-dioxopiperazin-1-yl)methyl)pyrrolidin-1-yl)-3-phenylpropan-2-yl)-5-(4-hydroxybenzyl)piperazine-2,3-dione] | – | – | – | – | – | – | – | – | – | – | lack of HDAC inhibition | did not stain positive for autophagy | exhibited traits of apoptosis; also recorded: less pronounced than 2155-14 | – | maintaining selectivity for CHO-K1 cells | improved activity | 0.745 ± 0.06 | improved activity |
